In ChEMBL document CHEMBL3991601, “The target landscape of clinical kinase drugs” (Science, 2017):
The source made the active and inactive calls. Rule as the data show it, for most assays here: actives have a measured Kd and inactives only a lower limit.

Experiments:
[1] = target: Mitogen-activated protein kinase 14 (Homo sapiens, UniProt Q16539)
[2] = target: T1, Cytochrome c1, heme protein, mitochondrial (Homo sapiens, UniProt P08574)
T1 sequence (P08574 whole entry): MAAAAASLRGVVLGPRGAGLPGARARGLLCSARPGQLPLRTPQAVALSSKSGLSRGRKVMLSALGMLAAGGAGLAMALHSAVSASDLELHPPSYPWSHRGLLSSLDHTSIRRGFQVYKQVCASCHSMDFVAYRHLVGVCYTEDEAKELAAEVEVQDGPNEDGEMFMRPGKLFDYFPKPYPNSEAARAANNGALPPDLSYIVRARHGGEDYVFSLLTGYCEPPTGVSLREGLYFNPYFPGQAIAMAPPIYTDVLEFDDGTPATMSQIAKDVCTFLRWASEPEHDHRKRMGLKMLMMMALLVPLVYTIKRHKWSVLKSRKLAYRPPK

[3] = target: Mitogen-activated protein kinase kinase kinase kinase 4 (Homo sapiens, UniProt O95819)
[4] = target: 26S proteasome regulatory subunit 6B (Homo sapiens, UniProt P43686)
[5] = target: Casein kinase I isoform delta (Homo sapiens, UniProt P48730)
[6] = target: Serine/threonine-protein kinase/endoribonuclease IRE1 (Homo sapiens, UniProt O75460)
[7] = target: T2, dCTP pyrophosphatase 1 (Homo sapiens, UniProt Q9H773)
T2 sequence (Q9H773 whole entry): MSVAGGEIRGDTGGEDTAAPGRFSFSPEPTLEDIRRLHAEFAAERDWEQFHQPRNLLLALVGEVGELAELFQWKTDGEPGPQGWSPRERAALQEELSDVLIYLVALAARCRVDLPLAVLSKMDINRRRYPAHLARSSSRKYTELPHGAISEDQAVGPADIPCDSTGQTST

[8] = target: Dual specificity protein kinase CLK1 (Homo sapiens, UniProt P49759)
[9] = target: Glycogen synthase kinase-3 alpha (Homo sapiens, UniProt P49840)
[10] = target: Mitogen-activated protein kinase kinase kinase 4 (Homo sapiens, UniProt Q9Y6R4)
[11] = target: Calcium/calmodulin-dependent protein kinase kinase 2 (Homo sapiens, UniProt Q96RR4)
[12] = target: Rho-associated protein kinase 2 (Homo sapiens, UniProt O75116)
[13] = target: T3, Mitogen-activated protein kinase kinase kinase 2 (Homo sapiens, UniProt Q9Y2U5)
T3 sequence (Q9Y2U5 whole entry): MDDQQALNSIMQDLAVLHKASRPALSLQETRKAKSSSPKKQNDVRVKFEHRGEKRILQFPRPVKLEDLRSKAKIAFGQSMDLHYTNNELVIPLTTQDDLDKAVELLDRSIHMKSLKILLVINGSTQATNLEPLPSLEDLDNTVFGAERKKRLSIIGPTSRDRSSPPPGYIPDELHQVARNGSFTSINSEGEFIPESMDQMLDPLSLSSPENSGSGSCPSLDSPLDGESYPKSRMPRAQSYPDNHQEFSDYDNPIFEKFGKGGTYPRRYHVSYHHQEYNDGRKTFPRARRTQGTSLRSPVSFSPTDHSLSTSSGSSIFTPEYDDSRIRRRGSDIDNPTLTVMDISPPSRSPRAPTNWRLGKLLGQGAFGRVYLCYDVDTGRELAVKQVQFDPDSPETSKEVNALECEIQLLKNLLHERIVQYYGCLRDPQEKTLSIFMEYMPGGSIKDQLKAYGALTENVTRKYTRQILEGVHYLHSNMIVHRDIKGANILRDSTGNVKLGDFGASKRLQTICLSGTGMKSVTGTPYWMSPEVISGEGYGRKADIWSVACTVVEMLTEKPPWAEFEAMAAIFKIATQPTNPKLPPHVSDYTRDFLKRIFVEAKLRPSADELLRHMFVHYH

[14] = target: T4, Phosphatidylinositol 5-phosphate 4-kinase type-2 alpha (Homo sapiens, UniProt P48426)
T4 sequence (P48426 whole entry): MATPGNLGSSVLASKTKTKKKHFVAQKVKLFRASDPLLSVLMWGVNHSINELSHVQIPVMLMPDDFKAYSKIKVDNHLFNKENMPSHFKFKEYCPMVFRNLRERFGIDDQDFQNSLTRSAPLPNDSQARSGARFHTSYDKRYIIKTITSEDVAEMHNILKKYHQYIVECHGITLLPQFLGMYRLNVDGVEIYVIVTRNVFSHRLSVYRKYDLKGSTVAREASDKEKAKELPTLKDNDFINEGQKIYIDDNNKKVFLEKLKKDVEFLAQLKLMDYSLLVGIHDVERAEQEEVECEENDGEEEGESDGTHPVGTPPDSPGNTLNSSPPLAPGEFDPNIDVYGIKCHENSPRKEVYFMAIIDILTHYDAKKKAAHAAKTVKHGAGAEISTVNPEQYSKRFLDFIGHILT

[15] = target: cAMP-dependent protein kinase catalytic subunit beta (Homo sapiens, UniProt P22694)
Also: in the data inactive means no Kd found up to 30 µM.

Glycogen synthase kinase-3 alpha, sequence (P49840 whole entry): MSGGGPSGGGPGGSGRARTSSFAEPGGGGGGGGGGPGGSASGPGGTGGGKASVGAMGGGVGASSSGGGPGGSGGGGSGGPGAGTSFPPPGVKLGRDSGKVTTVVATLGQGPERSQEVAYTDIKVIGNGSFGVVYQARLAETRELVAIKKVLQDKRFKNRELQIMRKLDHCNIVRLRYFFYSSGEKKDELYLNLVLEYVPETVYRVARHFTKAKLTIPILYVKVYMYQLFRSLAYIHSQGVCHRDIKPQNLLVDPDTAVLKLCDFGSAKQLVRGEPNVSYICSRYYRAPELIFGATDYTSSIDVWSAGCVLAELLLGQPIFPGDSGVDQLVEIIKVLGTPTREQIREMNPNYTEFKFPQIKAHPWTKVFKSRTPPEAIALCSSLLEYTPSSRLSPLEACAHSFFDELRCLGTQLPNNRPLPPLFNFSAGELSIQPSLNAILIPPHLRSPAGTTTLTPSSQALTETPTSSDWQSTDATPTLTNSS
Mitogen-activated protein kinase 14, sequence (Q16539 whole entry): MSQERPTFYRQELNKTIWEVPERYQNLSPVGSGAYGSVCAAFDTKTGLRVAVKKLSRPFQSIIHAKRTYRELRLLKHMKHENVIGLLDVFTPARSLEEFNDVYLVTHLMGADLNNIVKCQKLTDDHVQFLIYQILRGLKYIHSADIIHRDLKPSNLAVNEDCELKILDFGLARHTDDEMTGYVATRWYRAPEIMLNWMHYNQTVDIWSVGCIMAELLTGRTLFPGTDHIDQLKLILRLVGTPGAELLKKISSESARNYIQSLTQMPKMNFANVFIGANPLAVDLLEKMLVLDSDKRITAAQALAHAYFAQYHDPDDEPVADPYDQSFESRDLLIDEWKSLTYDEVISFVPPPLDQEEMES
Casein kinase I isoform delta, sequence (P48730 whole entry, canonical isoform): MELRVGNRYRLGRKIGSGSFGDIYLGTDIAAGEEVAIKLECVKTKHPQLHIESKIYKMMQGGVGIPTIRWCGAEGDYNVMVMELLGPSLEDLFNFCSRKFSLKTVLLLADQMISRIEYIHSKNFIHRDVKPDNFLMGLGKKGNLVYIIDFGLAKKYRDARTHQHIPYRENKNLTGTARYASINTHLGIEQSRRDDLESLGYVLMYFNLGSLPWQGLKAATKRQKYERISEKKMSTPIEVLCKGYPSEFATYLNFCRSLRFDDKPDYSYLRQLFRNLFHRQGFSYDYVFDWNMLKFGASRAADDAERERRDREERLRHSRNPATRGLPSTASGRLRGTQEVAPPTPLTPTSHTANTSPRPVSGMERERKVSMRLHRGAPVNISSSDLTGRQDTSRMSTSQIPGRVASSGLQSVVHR
26S proteasome regulatory subunit 6B, sequence (P43686 whole entry, canonical isoform): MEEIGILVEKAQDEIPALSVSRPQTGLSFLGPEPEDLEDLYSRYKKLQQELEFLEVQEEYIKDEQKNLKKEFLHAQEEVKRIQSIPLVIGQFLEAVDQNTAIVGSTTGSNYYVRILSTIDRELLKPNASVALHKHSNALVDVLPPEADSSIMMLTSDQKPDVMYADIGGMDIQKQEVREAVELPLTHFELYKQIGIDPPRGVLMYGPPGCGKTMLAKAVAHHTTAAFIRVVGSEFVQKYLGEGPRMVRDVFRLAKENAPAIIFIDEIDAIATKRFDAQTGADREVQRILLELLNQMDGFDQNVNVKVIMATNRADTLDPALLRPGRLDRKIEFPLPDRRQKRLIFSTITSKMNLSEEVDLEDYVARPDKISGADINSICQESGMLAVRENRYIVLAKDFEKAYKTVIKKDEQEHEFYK
Calcium/calmodulin-dependent protein kinase kinase 2, sequence (Q96RR4 whole entry): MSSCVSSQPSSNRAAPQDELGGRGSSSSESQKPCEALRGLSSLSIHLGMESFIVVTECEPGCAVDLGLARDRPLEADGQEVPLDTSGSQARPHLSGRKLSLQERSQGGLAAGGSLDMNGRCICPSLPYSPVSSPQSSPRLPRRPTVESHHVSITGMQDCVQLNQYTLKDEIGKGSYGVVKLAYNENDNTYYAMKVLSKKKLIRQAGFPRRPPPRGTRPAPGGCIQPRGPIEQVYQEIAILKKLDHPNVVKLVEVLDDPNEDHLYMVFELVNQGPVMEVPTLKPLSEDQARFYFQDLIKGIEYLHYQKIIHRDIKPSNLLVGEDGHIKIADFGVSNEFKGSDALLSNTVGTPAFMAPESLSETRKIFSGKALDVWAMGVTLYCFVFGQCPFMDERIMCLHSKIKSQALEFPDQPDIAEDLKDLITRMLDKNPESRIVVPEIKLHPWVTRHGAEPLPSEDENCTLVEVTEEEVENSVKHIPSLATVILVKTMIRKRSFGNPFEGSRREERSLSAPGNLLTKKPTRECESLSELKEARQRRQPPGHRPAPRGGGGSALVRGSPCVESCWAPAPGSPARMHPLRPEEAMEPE
Mitogen-activated protein kinase kinase kinase 4, sequence (Q9Y6R4 whole entry): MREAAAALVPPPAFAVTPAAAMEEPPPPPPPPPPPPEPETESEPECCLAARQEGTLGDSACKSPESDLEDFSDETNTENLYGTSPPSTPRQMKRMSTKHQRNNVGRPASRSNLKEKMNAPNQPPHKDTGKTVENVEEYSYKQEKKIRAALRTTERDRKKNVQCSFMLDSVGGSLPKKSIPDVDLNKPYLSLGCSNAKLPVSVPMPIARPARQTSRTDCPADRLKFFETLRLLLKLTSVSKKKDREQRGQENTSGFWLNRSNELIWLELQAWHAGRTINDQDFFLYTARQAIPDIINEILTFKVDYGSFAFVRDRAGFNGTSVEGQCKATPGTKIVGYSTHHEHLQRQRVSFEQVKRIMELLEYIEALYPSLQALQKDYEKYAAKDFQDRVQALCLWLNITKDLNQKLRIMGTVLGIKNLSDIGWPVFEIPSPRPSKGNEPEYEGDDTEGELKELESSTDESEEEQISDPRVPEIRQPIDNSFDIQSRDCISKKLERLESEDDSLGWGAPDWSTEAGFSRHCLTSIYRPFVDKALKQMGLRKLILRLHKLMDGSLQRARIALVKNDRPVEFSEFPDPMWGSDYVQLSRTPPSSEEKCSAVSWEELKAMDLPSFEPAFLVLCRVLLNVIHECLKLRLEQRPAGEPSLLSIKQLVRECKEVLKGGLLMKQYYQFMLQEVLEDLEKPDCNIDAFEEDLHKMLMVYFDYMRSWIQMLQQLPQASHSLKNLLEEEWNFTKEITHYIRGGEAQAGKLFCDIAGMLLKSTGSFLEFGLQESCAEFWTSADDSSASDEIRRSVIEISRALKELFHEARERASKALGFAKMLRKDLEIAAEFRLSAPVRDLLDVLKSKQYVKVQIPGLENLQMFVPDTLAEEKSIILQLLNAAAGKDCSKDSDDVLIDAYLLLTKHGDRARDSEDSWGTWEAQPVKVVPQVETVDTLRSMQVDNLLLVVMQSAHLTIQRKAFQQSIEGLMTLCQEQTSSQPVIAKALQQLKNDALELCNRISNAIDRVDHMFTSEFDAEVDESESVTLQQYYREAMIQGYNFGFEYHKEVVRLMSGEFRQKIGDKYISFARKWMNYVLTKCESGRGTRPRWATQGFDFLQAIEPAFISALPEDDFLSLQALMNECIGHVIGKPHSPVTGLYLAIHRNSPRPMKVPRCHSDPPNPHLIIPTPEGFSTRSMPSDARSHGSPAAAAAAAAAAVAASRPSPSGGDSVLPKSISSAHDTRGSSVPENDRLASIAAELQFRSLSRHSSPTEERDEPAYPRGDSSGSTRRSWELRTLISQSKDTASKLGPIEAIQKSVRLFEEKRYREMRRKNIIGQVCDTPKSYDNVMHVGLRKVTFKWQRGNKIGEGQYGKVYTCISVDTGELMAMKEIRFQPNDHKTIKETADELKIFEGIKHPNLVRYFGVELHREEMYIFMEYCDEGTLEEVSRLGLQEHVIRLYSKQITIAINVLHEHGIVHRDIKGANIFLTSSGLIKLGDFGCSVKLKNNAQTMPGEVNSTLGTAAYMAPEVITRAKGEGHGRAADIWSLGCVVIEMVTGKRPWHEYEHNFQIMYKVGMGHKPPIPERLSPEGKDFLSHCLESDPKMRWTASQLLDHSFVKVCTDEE
Dual specificity protein kinase CLK1, sequence (P49759 whole entry): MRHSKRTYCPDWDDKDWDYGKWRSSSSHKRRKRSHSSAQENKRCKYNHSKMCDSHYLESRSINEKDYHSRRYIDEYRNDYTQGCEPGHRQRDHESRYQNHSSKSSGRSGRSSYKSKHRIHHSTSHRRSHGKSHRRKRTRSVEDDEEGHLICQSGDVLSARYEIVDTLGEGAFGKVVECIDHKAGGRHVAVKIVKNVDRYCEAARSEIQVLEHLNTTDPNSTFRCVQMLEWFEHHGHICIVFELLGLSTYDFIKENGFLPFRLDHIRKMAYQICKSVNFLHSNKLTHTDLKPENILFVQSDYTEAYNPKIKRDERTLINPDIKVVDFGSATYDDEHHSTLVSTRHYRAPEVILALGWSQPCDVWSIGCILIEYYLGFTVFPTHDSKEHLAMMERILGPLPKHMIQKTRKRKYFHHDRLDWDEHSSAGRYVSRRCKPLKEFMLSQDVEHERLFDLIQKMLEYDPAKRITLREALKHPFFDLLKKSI

| SMILES | Kd [1] | Kd [2] | Kd [3] | Kd [4] | Kd [5] | Kd [6] | Kd [7] | Kd [8] | Kd [9] | Kd [10] | Kd [11] | Kd [12] | Kd [13] | Kd [14] | Kd [15] |
| --- | --- | --- | --- | --- | --- | --- | --- | --- | --- | --- | --- | --- | --- | --- | --- |
| Cn1cc(-c2cnn3c(N)c(Br)c([C@@H]4CCCNC4)nc23)cn1 [SCH-900776] | > 30 µM (inactive) | > 30 µM (inactive) | > 30 µM (inactive) | 5 nM | > 30 µM (inactive) | > 30 µM (inactive) | > 30 µM (inactive) | > 30 µM (inactive) | > 30 µM (inactive) | > 30 µM (inactive) | > 30 µM (inactive) | > 30 µM (inactive) | > 30 µM (inactive) | > 30 µM (inactive) | > 30 µM (inactive) |
| CCn1c(C(=O)N(C2CC2)C2CC2)cc2c3c(ncn3C)c(Nc3cc(C)n(C)n3)nc21 [BMS-911543] | > 30 µM (inactive) | > 30 µM (inactive) | > 30 µM (inactive) | > 30000 nM (inactive) | > 30 µM (inactive) | > 30 µM (inactive) | > 30 µM (inactive) | > 30 µM (inactive) | > 30 µM (inactive) | > 30 µM (inactive) | > 30 µM (inactive) | > 30 µM (inactive) | > 30 µM (inactive) | > 30 µM (inactive) | > 30 µM (inactive) |
